Laboratory results as given in patent publication US6686373B2, “Pyrazoloquinolinone derivatives as protein kinase C inhibitors” (Warner-Lambert Company LLC, priority 2001, dated 2004).
Counter-ions that a name gives are not always drawn.

SMILES | melting point
CN(C)CCOc1ccc(Cc2ccc3[nH]c4cnn(C)c4c(=O)c3c2)cc1.Cl | 235 to 240 °C
Cc1ccc2c(c1)c(=O)c1c(cnn1C)n2CCCCCCN(C)C.Cl | 210 °C
Cc1ccc2c(c1)c(=O)c1c(cnn1C)n2CCCN(C)C.Cl | 240 °C
Cc1ccc2c(c1)c(=O)c1c(cnn1C)n2CCCl [Example 62, 4-(2-CHLOROETHYL)-1,7-DIMETHYL-1,4-DIHYDRO-9H-PYRAZOLO[4,3-b]QUINOLIN-9-ONE] | 196 °C
Cn1ncc2[nH]c3cccc(F)c3c(=O)c21 [Example 4, 8-FLUORO-1-METHYL-1,4-DIHYDRO-9H-PYRAZOLO[4,3-b]QUINOLIN-9-ONE] | > 300 °C
Cn1ncc2[nH]c3ccc(NC(=O)c4ccccc4)cc3c(=O)c21 [Example 46, N-(1-METHYL-9-OXO-4,9-DIHYDRO-1H-PYRAZOLO[4,3-b]QUINOLIN-7-YL)BENZAMIDE] | > 300 °C
CCCCn1c2ccc(C)cc2c(=O)c2c1cnn2C [Example 48, 4-BUTYL-1,7-DIMETHYL-1,4-DIHYDRO-9H-PYRAZOLO[4,3-b]QUINOLIN-9-ONE] | 262 °C
CCc1cccc2[nH]c3cnn(C)c3c(=O)c12 [Example 8, 8-ETHYL-1-METHYL-1,4-DIHYDRO-9H-PYRAZOLO[4,3-b]QUINOLIN-9-ONE] | 250 °C
Cl.Cn1ncc2[nH]c3ccc(Cc4ccccc4N)cc3c(=O)c21 | 273 °C
Cc1ccc2c(c1)c(=O)c1c(cnn1C)n2CCN.Cl | > 280 °C
Cn1ncc2[nH]c3cc(F)ccc3c(=O)c21 [Example 3, 6-FLUORO-1-METHYL-1,4-DIHYDRO-9H-PYRAZOLO[4,3-b]QUINOLIN-9-ONE] | 269 °C
Cn1ncc2[nH]c3ccc(-c4cccc(O)c4)cc3c(=O)c21 [Example 40, 7-[3-HYDROXYPHENYL]-1-METHYL-1,4-DIHYDRO-9H-PYRAZOLO[4,3-b]QUINOLIN-9-ONE] | > 250 °C
Cn1ncc2[nH]c3cccc(-c4ccc(O)cc4)c3c(=O)c21 [Example 38, 8-(4-HYDROXYPHENYL)-1-METHYL-1,4-DIHYDRO-9H-PYRAZOLO[4,3-b]QUINOLIN-9-ONE] | > 300 °C
Cn1ncc2[nH]c3ccc(Cc4cccc(O)c4)cc3c(=O)c21 [Example 20, 7-(3-HYDROXYBENZYL)-1-METHYL-1,4-DIHYDRO-9H-PYRAZOLO[4,3-b]QUINOLIN-9-ONE] | > 270 °C
Cc1ccc2c(c1)c(=O)c1c(cnn1C)n2CC(N)=O [Example 52, 2-(1,7-DIMETHYL-9-OXO-1,9-DIHYDRO-4H-PYRAZOLO[4,3-b]QUINOLIN-4-YL)ACETAMIDE] | 247 to 252 °C
Cn1ncc2[nH]c3c(c(=O)c21)CC(Cc1ccccc1)CC3 (stereo not drawn) (as salt: hydrochloride) | > 250 °C

SMILES | melting point
Cn1ncc2[nH]c3ccc(Cc4cccc([N+](=O)[O-])c4)cc3c(=O)c21 [Example 23, 1-METHYL-7-(3-NITROBENZYL)-1,4-DIHYDRO-9H-PYRAZOLO[4,3-b]QUINOLIN-9-ONE] | 279 to 283 °C
CSCCn1c2ccc(C)cc2c(=O)c2c1cnn2C [Example 53, 1,7-DIMETHYL-4-[2-(METHYLSULFANYL)ETHYL]-1,4-DIHYDRO-9H-PYRAZOLO[4,3-b]QUINOLIN-9-ONE] | 125 °C
Cn1ncc2[nH]c3c(F)cccc3c(=O)c21 [Example 2, 5-FLUORO-1-METHYL-1,4-DIHYDRO-9H-PYRAZOLO[4,3-b]QUINOLIN-9-ONE] | > 300 °C
Cc1ccc2c(c1)c(=O)c1c(cnn1C)n2CCCNS(C)(=O)=O [Example 60, N-[3-(1,7-DIMETHYL-9-OXO-1,9-DIHYDRO-4H-PYRAZOLO[4,3-b]QUINOLIN-4-YL)PROPYL]METHANESULFONAMIDE] | 179 °C
Cl.Cn1ncc2[nH]c3ccc(Cc4ccc(CN)cc4)cc3c(=O)c21 | > 300 °C
Cc1ccc2c(c1)c(=O)c1c(cnn1C)n2CCN(C)C.Cl | 255 °C
COc1ccccc1Cc1ccc2[nH]c3cnn(C)c3c(=O)c2c1 [Example 21, 7-(2-METHOXYBENZYL)-1-METHYL-1,4-DIHYDRO-9H-PYRAZOLO[4,3-b]QUINOLIN-9-ONE] | 255 °C
Cl.Cn1ncc2[nH]c3ccc(Cc4cccc(N)c4)cc3c(=O)c21 | 287 °C (dec.)
Cn1ncc2[nH]c3ccc(Cc4ccccc4)cc3c(=O)c21 [Example 11, 7-BENZYL-1-METHYL-1,4-DIHYDRO-9H-PYRAZOLO[4,3-b]QUINOLIN-9-ONE] | 282 °C
Cn1ncc2[nH]c3ccc(Cc4cccc(C#N)c4)cc3c(=O)c21 [Example 28, 3-[(1-METHYL-9-OXO-4,9-DIHYDRO-1H-PYRAZOLO[4,3-b]QUINOLIN-7-YL)METHYL]BENZONITRILE] | 275 °C
Cn1ncc2[nH]c3ccc(Cc4ccccc4C(N)=O)cc3c(=O)c21 [Example 32, 2-[(1-METHYL-9-OXO-4,9-DIHYDRO-1H-PYRAZOLO[4,3-b]QUINOLIN-7-YL)METHYL]BENZAMIDE] | > 300 °C
CCc1ccc2c(=O)c3c(cnn3C)[nH]c2c1 [Example 9, 6-ETHYL-1-METHYL-1,4-DIHYDRO-9H-PYRAZOLO[4,3-b]QUINOLIN-9-ONE] | 263 °C
Cn1ncc2[nH]c3cccc(-c4cccc(O)c4)c3c(=O)c21 [Example 39, 8-(3-HYDROXYPHENYL)-1-METHYL-1,4-DIHYDRO-9H-PYRAZOLO[4,3-b]QUINOLIN-9-ONE] | > 300 °C
Cn1ncc2[nH]c3c(Br)cccc3c(=O)c21 [Example 5, 5-BROMO-1-METHYL-1,4-DIHYDRO-9H-PYRAZOLO[4,3-b]QUINOLIN-9-ONE] | 287 °C
CCN(C)CCCn1c2ccc(C)cc2c(=O)c2c1cnn2C.Cl | 213 °C
COc1ccc(Cc2ccc3[nH]c4cnn(C)c4c(=O)c3c2)cc1 [Example 16, 7-(4-METHOXYBENZYL)-1-METHYL-1,4-DIHYDRO-9H-PYRAZOLO[4,3-b]QUINOLIN-9-ONE] | 248 to 249 °C

Next, values leading:

melting point | SMILES
> 300 °C | Cn1ncc2[nH]c3ccc(Cc4cccc(C(=O)O)c4)cc3c(=O)c21 [Example 30, 3-[(1-METHYL-9-OXO-4,9-DIHYDRO-1H-PYRAZOLO[4,3-b]QUINOLIN-7-YL)METHYL]BENZOIC ACID]
259 °C | Cl.Cn1ncc2[nH]c3ccc(Cc4cccnc4)cc3c(=O)c21
278 °C | Cn1ncc2[nH]c3ccc(Cc4ccccc4Cl)cc3c(=O)c21 [Example 15, 7-(2-CHLOROBENZYL)-1-METHYL-1,4-DIHYDRO-9H-PYRAZOLO[4,3-b]QUINOLIN-9-ONE]
> 300 °C | Cl.Cn1ncc2[nH]c3ccc(Cc4cccc(CN)c4)cc3c(=O)c21
> 300 °C | Cn1ncc2[nH]c3c(c(=O)c21)CCCC3 [Example 67, 1-METHYL-5,6,7,8-TETRAHYDRO-1H-PYRAZOLO[4,3-b]QUINOLIN-9-OL]
291 °C | Cn1ncc2[nH]c3ccc(Cc4ccc(C#N)cc4)cc3c(=O)c21 [Example 26, 4-[(1-METHYL-9-OXO-4,9-DIHYDRO-1H-PYRAZOLO[4,3-b]QUINOLIN-7-YL)METHYL]BENZONITRILE]
266 °C | CCc1ccc2[nH]c3cnn(C)c3c(=O)c2c1 [Example 6, 7-ETHYL-1-METHYL-1,4-DIHYDRO-9H-PYRAZOLO[4,3-b]QUINOLIN-9-ONE]
254 °C | CCc1cccc2c(=O)c3c(cnn3C)[nH]c12 [Example 7, 5-ETHYL-1-METHYL-1,4-DIHYDRO-9H-PYRAZOLO[4,3-b]QUINOLIN-9-ONE]
> 300 °C | Cl.Cn1ncc2[nH]c3ccc(CCCN)cc3c(=O)c21
> 300 °C | Cn1ncc2[nH]c3ccc(Cc4cccc(C(N)=O)c4)cc3c(=O)c21 [Example 29, 3-[(1-METHYL-9-OXO-4,9-DIHYDRO-1H-PYRAZOLO[4,3-b]QUINOLIN-7-YL)METHYL]BENZAMIDE]
> 300 °C | Cc1ccc2[nH]c3c(N)nn(C)c3c(=O)c2c1 [Example 12, 3-AMINO-1,7-DIMETHYL-1,4-DIHYDRO-9H-PYRAZOLO[4,3-b]QUINOLIN-9-ONE]
301 °C | Cn1ncc2[nH]c3ccc(F)cc3c(=O)c21 [Example 1, 7-FLUORO-1-METHYL-1,4-DIHYDRO-9H-PYRAZOLO[4,3-b]QUINOLIN-9-ONE]
279 °C | Cn1ncc2[nH]c3c(c(=O)c21)CC(Cc1ccc(Cl)cc1)CC3 (stereo not drawn) (as salt: hydrochloride)
214 to 219 °C | Cc1ccc2c(c1)c(=O)c1c(cnn1C)n2CC#N [Example 51, (1,7-DIMETHYL-9-OXO-1,9-DIHYDRO-4H-PYRAZOLO[4,3-b]QUINOLIN-4-YL)ACETONITRILE]
> 250 °C | Cl.Cn1ncc2[nH]c3ccc(Cc4ccccc4CN)cc3c(=O)c21
80 to 82 °C | CCCCCCn1c2ccc(C)cc2c(=O)c2c1cnn2C
